The test concerns the target T1, LRRK2 (Homo sapiens, UniProt Q5S007, G2019S).
T1 construct: purchased Invitrogen PV4882
The test is described as follows: In Vitro LRRK2 LabChip Assay (LRRK2 Ki). It is filed as biochemical. As to the method: In Vitro LRRK2 LabChip Assay
This assay was used to determine a compound's potency in inhibiting activity of LRRK2 by determining, Kiapp, IC50, or percent inhibition values. In a polypropylene plate, LRRK2, fluorescently-labeled peptide substrate, ATP and test compound were incubated together. Using a LabChip 3000 (Caliper Life Sciences), after the reaction the substrate was separated by capillary electrophoresis into two populations: phosphorylated and unphosphorylated. The relative amounts of each were quantitated by fluorescence intensity. LRRK2 Ki was determined according to the equation: Y=V0*(1−((x+Ki*(1+S/Km)+Et)/(2*Et)−(((x+Ki*(1+S/Km)+Et)^2−(4*Et*x))^0.5)/(2*Et))). Ki values in Table 4 and elsewhere herein are shown in μM.
Assay conditions and materials used were as follows:
LRRK2 Wild type in 5 mM MgCl2: 15 nM (Invitrogen lot #500607F)
Kinase reaction time: 2 hours
Wild type in 5 mM MgCl2: 80 μM
Solid Support: Black 50 μL volume polypropylene 384 well plate (MatriCal cat # MP101-1-PP)
Kinase: LRRK2 G2019S (Invitrogen cat #PV4882). • LRRK2 Wild type (Invitrogen cat #PV4874).
Substrate: 5FAM-[…]-CONH2
Non-binding plate: 384 well clear V-bottom polypropylene plates (Greiner cat #781280).
ATP: 10 mM ATP (Cell Signaling cat #9804).
Coating Reagent #3: Coating Reagent #3 (Caliper).
Complete Reaction Buffer: H2O/25 mM Tris, pH 8.0/5 mM MgCl2/2 mM DTT/0.01% Triton X-100.
Stop Solution: H2O/100 mM HEPES, pH 7.2/0.015% Brij-35/0.2% Coating Reagent #3/20 mM EDTA.
Separation Buffer: H2O/100 mM HEPES, pH 7.2/0.015% Brij-35/0.1% Coating Reagent #3/1:200 Coating Reagent #8/10 mM EDTA/5% DMSO.
Compound Plate Preparation:
For serial dilutions, 34.6 μl DMSO was added to columns 3-24. For the assay controls, 37.5 μl DMSO was added to columns 1 and 2 of rows A and P. a, d and 50 μl 25 μM G-028831 (Staurosporine) was added to columns 1 and 2, row B. For the samples: to start at 100 μM, 37.5 μl DMSO was to columns 1 and 2, then 12.5 μl 10 mM compound; to start at 10 μM, 78 μl DMSO was added to columns 1 & 2, then 2 μl 10 mM compound; and to start at 1 μM, 25 μM compound (2 μl 10 mM cmpd+798 μl DMSO) was added to empty columns 1 and 2. A Precision instrument was used to perform 1:3.16 serial dilutions (“PLK_BM_serial_halflog”).
ATP was diluted to 282.1 μM in Complete Kinase Buffer (final concentration was 130 μM).
Total and Blank Preparation:
In Complete Reaction Buffer, substrate was diluted to 4 μM. Equal volumes of Complete Reaction Buffer and 4 μM substrate were combined to obtain the blank. Equal volumes of Complete Reaction Buffer and 4 μM substrate were combined and to the combined solution was added 2× final LRRK2 concentration.
To a 50 μl polypropylene plate, 5 μl/well buffer/substrate was added by hand to Blank wells. A Biomek FX was used to start the kinase reaction (“PLK SAR 23 ATP”). The following were added to the appropriate wells:
5 μl/well compound/ATP in Assay Plate;
5 μl/well kinase/substrate in Assay Plate;
The plate was incubated for 2 hours in the dark. Biomek FX was used to stop the kinase reaction (“PLK Stop”), and 10 μl/well Stop solution was added to the Assay Plate. Results were read on the LabChip 3000.
The LabChip 3000 was run using the job “LRRK2 IC50” with the following job settings:
Downstream voltage: −500 V
Upstream voltage: −2350 V
Post sample buffer sip time: 75 seconds
Post dye buffer sip time: 75 seconds
Final delay time: 200 seconds

The mark [1] stands for this setting: Table 6 compounds (formula II/III, fused ring).

T1 sequence (Q5S007 whole entry G2019S): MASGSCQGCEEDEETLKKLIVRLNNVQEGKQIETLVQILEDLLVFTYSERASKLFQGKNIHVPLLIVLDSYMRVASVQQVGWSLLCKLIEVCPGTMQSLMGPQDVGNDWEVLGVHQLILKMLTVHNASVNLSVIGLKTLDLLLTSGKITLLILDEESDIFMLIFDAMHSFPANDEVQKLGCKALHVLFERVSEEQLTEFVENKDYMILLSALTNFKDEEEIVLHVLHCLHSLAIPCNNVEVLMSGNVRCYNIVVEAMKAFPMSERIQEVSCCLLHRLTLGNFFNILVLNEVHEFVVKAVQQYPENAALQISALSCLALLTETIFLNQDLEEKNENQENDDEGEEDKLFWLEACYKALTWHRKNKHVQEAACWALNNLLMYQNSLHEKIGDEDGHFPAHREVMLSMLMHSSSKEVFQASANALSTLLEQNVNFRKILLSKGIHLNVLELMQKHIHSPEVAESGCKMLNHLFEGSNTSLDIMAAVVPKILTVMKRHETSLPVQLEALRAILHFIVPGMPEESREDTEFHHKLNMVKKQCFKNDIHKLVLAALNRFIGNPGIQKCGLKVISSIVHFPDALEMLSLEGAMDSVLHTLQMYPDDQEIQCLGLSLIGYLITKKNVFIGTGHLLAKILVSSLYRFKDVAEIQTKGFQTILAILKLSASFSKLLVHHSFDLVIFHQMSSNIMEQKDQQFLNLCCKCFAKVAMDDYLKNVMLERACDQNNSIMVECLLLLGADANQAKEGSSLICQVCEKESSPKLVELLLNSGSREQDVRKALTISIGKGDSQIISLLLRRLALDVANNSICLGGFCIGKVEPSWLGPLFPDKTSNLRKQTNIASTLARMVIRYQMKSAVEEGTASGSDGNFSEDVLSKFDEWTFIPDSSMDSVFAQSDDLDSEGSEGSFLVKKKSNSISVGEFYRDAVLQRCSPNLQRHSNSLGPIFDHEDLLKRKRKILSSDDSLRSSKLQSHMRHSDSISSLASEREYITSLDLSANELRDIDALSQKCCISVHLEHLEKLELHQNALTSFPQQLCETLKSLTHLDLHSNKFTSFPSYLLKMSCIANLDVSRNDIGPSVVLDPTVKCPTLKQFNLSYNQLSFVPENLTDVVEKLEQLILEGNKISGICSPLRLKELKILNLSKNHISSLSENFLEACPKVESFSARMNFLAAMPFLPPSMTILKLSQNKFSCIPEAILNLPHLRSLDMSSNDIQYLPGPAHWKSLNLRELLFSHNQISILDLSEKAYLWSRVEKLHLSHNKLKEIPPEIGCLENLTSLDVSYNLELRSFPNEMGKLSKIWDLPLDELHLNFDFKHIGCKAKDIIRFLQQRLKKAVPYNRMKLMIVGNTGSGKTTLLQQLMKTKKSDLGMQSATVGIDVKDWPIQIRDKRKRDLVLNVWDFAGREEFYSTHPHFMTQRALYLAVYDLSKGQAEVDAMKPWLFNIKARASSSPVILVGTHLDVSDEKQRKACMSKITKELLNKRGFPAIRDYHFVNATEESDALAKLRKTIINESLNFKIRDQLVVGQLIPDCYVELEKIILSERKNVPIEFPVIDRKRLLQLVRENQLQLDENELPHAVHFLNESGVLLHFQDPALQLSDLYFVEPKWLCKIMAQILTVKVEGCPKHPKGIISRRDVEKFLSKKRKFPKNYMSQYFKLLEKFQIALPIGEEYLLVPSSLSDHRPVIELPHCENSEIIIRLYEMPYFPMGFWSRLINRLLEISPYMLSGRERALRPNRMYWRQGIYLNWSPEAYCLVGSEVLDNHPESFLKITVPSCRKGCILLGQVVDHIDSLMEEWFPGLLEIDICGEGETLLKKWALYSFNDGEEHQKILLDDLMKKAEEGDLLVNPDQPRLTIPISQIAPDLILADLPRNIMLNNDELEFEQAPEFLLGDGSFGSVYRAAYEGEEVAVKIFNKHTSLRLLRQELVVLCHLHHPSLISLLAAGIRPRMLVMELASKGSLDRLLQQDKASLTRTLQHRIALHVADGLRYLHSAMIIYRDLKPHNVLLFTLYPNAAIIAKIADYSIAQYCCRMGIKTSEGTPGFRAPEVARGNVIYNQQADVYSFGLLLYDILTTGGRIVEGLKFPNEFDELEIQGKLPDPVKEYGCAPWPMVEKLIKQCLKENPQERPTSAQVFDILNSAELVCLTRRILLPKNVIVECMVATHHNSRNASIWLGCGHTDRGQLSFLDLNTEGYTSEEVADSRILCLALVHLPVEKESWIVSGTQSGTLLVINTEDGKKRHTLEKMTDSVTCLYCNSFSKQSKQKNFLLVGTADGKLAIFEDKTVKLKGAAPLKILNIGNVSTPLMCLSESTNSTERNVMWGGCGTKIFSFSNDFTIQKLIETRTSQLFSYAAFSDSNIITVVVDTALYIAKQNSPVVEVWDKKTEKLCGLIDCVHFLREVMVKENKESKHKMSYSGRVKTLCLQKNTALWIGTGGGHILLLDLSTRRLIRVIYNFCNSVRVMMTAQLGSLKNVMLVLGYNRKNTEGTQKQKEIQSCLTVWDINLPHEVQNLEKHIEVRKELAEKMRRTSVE

Consider `CNc1nc(Nc2cc(OC)c(C(=O)N3CCN(CCOC)CC3)cc2Cl)ncc1C(F)(F)F` [Compound 1, [5-Chloro-2-methoxy-4-(4-methylamino-5-trifluoromethyl-pyrimidin-2-ylamino)-phenyl]-[4-(2-methoxy-ethyl)-piperazin-1-yl]-methanone], for which, where the note is “Table 5 compounds (formula I)”, the Ki (usually a measure of affinity in units of concentration, obtained from inhibition or displacement) worked out at 4 nM. `CNc1nc(Nc2cc(C)c(C(=O)N3CCOCC3)cc2Cl)ncc1C(F)(F)F` [Compound 2, [5-Chloro-2-methyl-4-(4-methylamino-5-trifluoromethyl-pyrimidin-2-ylamino)-phenyl]-morpholin-4-yl-methanone] displayed an inhibition constant (Ki) (Table 5 compounds (formula I)) of 7 nM and a Ki under setting [1] of 0.31 nM. In the case of `CNc1nc(Nc2cc(C)c(C(=O)N3CCOCC3)cc2OC)ncc1C(F)(F)F` [Compound 3, [5-Methoxy-2-methyl-4-(4-methylamino-5-trifluoromethyl-pyrimidin-2-ylamino)-phenyl]-morpholin-4-yl-methanone], the affinity (Table 5 compounds (formula I)), expressed as Ki, was 1.43 nM and the Ki under setting [1] came to 1.08 nM. In turn, `CNc1nc(Nc2cc(F)c(C(=O)N3CCN4CCCC4C3)cc2OC)ncc1C(F)(F)F` (stereo not shown) [Compound 4, [2-Fluoro-5-methoxy-4-(4-methylamino-5-trifluoromethyl-pyrimidin-2-ylamino)-phenyl]-(hexahydro-pyrrolo[1,2-a]pyrazin-2-yl)-methanone] displayed a Ki (Table 5 compounds (formula I)) of 3.41 nM. `CNc1nc(Nc2cc(F)c(C(=O)N3C[C@H]4CC[C@@H](C3)O4)cc2OC)ncc1C(F)(F)F` [Compound 5, [2-Fluoro-5-methoxy-4-(4-methylamino-5-trifluoromethyl-pyrimidin-2-ylamino)-phenyl]-(1S,5R)-8-oxa-3-aza-bicyclo[3.2.1]oct-3-yl-methanone] gave a Ki (Table 5 compounds (formula I)) of 1.78 nM.

With `CCNc1nc(Nc2cc(F)c(C(=O)N3C[C@H]4CC[C@@H](C3)O4)cc2OC)ncc1C(F)(F)F` [Compound 6, [4-(4-Ethylamino-5-trifluoromethyl-pyrimidin-2-ylamino)-2-fluoro-5-methoxy-phenyl]-(1S,5R)-8-oxa-3-aza-bicyclo[3.2.1]oct-3-yl-methanone], the Ki (Table 5 compounds (formula I)) turned out to be 0.501 nM. Regarding `CCNc1nc(Nc2ccc(C(=O)N3CCC(F)(F)C3)c3c2OCCO3)ncc1C(F)(F)F` [Compound 6], the inhibition constant Ki under setting [1] was 0.636 nM. `CNc1nc(Nc2cc(F)c(C(=O)N(C)C3CCN(C)CC3)cc2OC)ncc1C(F)(F)F` [Compound 7, 2-Fluoro-5-methoxy-N-methyl-4-(4-methylamino-5-trifluoromethyl-pyrimidin-2-ylamino)-N-(1-methyl-piperidin-4-yl)-benzamide] gave an inhibitory constant (Ki) (Table 5 compounds (formula I)) of 7.55 nM. That is a single-digit nanomolar value. Still for that read-out and setting: next, `CNc1nc(Nc2cc(F)c(C(=O)N3CCC(N4CCOCC4)CC3)cc2OC)ncc1C(F)(F)F` [Compound 8, [2-Fluoro-5-methoxy-4-(4-methylamino-5-trifluoromethyl-pyrimidin-2-ylamino)-phenyl]-(4-morpholin-4-yl-piperidin-1-yl)-methanone]: 0.7 nM. `COc1nc(Nc2ccc(C(=O)N3CCOCC3)cc2O)ncc1Cl` [Compound 9, [4-(5-Chloro-4-methoxy-pyrimidin-2-ylamino)-3-hydroxy-phenyl]-morpholin-4-yl-methanone] came in with a Ki (Table 5 compounds (formula I)) of 120 nM. On the same count and under the same terms, next, `CNc1nc(Nc2cc(O)c(C(=O)N3CCOCC3)cc2Cl)ncc1C(F)(F)F` [Compound 10, [5-Chloro-2-hydroxy-4-(4-methylamino-5-trifluoromethyl-pyrimidin-2-ylamino)-phenyl]-morpholin-4-yl-methanone]: 11.6 nM. For the compound `CNc1nc(Nc2cc(F)c(C(=O)N3C[C@@H]4C[C@H]3CO4)cc2OC)ncc1C(F)(F)F` [Compound 11, [2-Fluoro-5-methoxy-4-(4-methylamino-5-trifluoromethyl-pyrimidin-2-ylamino)-phenyl]-(1S,4S)-2-oxa-5-aza-bicyclo[2.2.1]hept-5-yl-methanone], the Ki (Table 5 compounds (formula I)) stood at 2.1 nM.

The compound `CNc1nc(Nc2ccc(C(=O)N3CCOCC3)c(F)c2F)ncc1C(F)(F)F` [Compound 12, [2,3-Difluoro-4-(4-methylamino-5-trifluoromethyl-pyrimidin-2-ylamino)-phenyl]-morpholin-4-yl-methanone] came in with a Ki (Table 5 compounds (formula I)) of 13.5 nM. Where the note is “Table 5 compounds (formula I)”, `CNc1nc(Nc2ccc(C(=O)N3CCOCC3)c(F)c2F)ncc1Cl` [Compound 13, [4-(5-Chloro-4-methylamino-pyrimidin-2-ylamino)-2,3-difluoro-phenyl]-morpholin-4-yl-methanone] gave a Ki of 14.5 nM. For the setting “Table 5 compounds (formula I)”, `CCNc1nc(Nc2cc(F)c(C(=O)N3C[C@@H]4C[C@H]3CO4)cc2OC)ncc1C(F)(F)F` [Compound 14, [4-(4-Ethylamino-5-trifluoromethyl-pyrimidin-2-ylamino)-2-fluoro-5-methoxy-phenyl]-(1S,4S)-2-oxa-5-aza-bicyclo[2.2.1]hept-5-yl-methanone] returned an inhibition constant (Ki) of 0.59 nM.

Where the note is “Table 5 compounds (formula I)”, `CNc1nc(Nc2cc(OC)c(C(=O)N3C[C@@H]4C[C@H]3CO4)cc2Cl)ncc1C(F)(F)F` [Compound 15, [5-Chloro-2-methoxy-4-(4-methylamino-5-trifluoromethyl-pyrimidin-2-ylamino)-phenyl]-(1S,4S)-2-oxa-5-aza-bicyclo[2.2.1]hept-5-yl-methanone] gave a Ki of 2.55 nM. For the setting “Table 5 compounds (formula I)”, `CNc1nc(Nc2cc(F)c(C(=O)N3CCOCC3)cc2F)ncc1C(F)(F)F` [Compound 16, [2,5-Difluoro-4-(4-methylamino-5-trifluoromethyl-pyrimidin-2-ylamino)-phenyl]-morpholin-4-yl-methanone] registered an inhibitory constant (Ki) of 24.2 nM. `CNc1nc(Nc2cc(F)c(C(=O)N3CCOCC3)cc2F)ncc1Cl` [Compound 17, [4-(5-Chloro-4-methylamino-pyrimidin-2-ylamino)-2,5-difluoro-phenyl]-morpholin-4-yl-methanone] registered a Ki (Table 5 compounds (formula I)) of 35.6 nM. The compound `CCNc1nc(Nc2cc(F)c(C(=O)NCC(C)(C)O)cc2OC)ncc1C(F)(F)F` [Compound 18, 4-(4-Ethylamino-5-trifluoromethyl-pyrimidin-2-ylamino)-2-fluoro-N-(2-hydroxy-2-methyl-propyl)-5-methoxy-benzamide] displayed an inhibition constant (Ki) (Table 5 compounds (formula I)) of 0.429 nM. Consider `CCNc1nc(Nc2cc(F)c(C(=O)N(C)CC(C)(C)O)cc2OC)ncc1C(F)(F)F` [Compound 19, 4-(4-Ethylamino-5-trifluoromethyl-pyrimidin-2-ylamino)-2-fluoro-N-(2-hydroxy-2-methyl-propyl)-5-methoxy-N-methyl-benzamide], for which the inhibitory constant (Ki) (Table 5 compounds (formula I)) worked out at 1.94 nM. The compound `CNc1nc(Nc2cc(OC)c(C(=O)N3CC(N4CCOCC4)C3)cc2Cl)ncc1C(F)(F)F` [Compound 20, [5-Chloro-2-methoxy-4-(4-methylamino-5-trifluoromethyl-pyrimidin-2-ylamino)-phenyl]-(3-morpholin-4-yl-azetidin-1-yl)-methanone] yielded a Ki (Table 5 compounds (formula I)) of 3.12 nM.

`CCNc1nc(Nc2ccc(C(=O)NC(C)(C)C)cc2OC)ncc1C(F)(F)F` [Compound 21, N-tert-Butyl-4-(4-ethylamino-5-trifluoromethyl-pyrimidin-2-ylamino)-3-methoxy-benzamide] had an inhibition constant (Ki) (Table 5 compounds (formula I)) of 0.371 nM. `CNc1nc(Nc2ccc(C(=O)N3CCOCC3)cc2F)ncc1C(F)(F)F` [Compound 22, [3-Fluoro-4-(4-methylamino-5-trifluoromethyl-pyrimidin-2-ylamino)-phenyl]-morpholin-4-yl-methanone] displayed a Ki (Table 5 compounds (formula I)) of 20.9 nM.

The record behind these values is patent publication US8809331B2 (Genentech, Inc., priority 2011, dated 2014).
